Measurements from patent US11649460B2, “DNA aptamers, method for inhibiting human galectin-1 and method of treating a mammal in need thereof” (priority 2020, dated 2023).

Key:
[1] = test system: MCF-7 human breast adenocarcinoma cell line; assay: SRB cell proliferation (cytotoxicity) assay, MCF-7; conditions: MCF-7
Text: (§1) The XLSTAT software was used to determine the IC50, TGI and LC50 values using the four-parameter logistic curve equation.

[2] = test system: DU-145 human prostate carcinoma cell line; assay: SRB cell proliferation (cytotoxicity) assay, DU-145; conditions: DU-145
Text: as §1

[3] = test system: A-375 human malignant melanoma; assay: SRB cell proliferation (cytotoxicity) assay, A-375; conditions: A-375
Text: as §1

[4] = test system: HT-29 human colorectal adenocarcinoma; assay: SRB cell proliferation (cytotoxicity) assay, HT-29; conditions: HT-29
Text: as §1

[5] = test system: HCT 116 human colorectal carcinoma; assay: SRB cell proliferation (cytotoxicity) assay, HCT 116; conditions: HCT 116
Text: as §1

[6] = test system: SK-BR-3 human breast adenocarcinoma; assay: SRB cell proliferation (cytotoxicity) assay, SK-BR-3; conditions: SK-BR-3
Text: as §1

[7] = test system: NHF human foreskin skin fibroblasts; assay: SRB cell proliferation (cytotoxicity) assay, NHF; conditions: NHF
Text: as §1

[8] = biological target: T1, hGal1-induced hemagglutination of red blood cells (Homo sapiens, UniProt P09382); assay: Hemagglutination inhibition assay, native hGal1; assay type: cell-based; conditions: native Gal1 5 μM
T1 construct: 42; made in house; host or cells: E. coli strain M-15
Description: Hemagglutination Inhibition Assay
Hemagglutination assay was adopted to assess the capacity of SEQ ID NO.: 4 in inhibiting the lectin cross-linking aggregation of red blood cells (RBC), as previously described. Briefly, using a 96-well microplates appropriate amounts of 5 μM hGal1 were blended with 50 μL of aptamer in an increasing concentrations manner (0-40 μM) in PBS 1× buffer (pH 7.4). Following, 50 μL of 3% purified type B+ RBC in PBS. After 2 h of room temperature incubation, the plate was photographed and the hemagglutination area was estimated by area calculator Sketchandcalc™ and the results were expressed as relative agglutination.

[9] = read-out: IC50: Concentration to inhibit 50% of cell growth

T1 sequence (P09382 2-135): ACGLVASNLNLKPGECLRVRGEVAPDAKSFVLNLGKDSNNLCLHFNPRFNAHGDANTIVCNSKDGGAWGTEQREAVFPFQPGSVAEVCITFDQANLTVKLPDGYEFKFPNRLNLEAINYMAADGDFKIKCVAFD

Structure (SMILES)	TGI: Concentration for total inhibition of cell growth [1]	TGI: Concentration for total inhibition of cell growth [2]	IC50 [2, 9]	TGI: Concentration for total inhibition of cell growth [3]	TGI: Concentration for total inhibition of cell growth [4]	IC50 [4, 9]	TGI: Concentration for total inhibition of cell growth [5]	TGI: Concentration for total inhibition of cell growth [6]	IC50 [6, 9]	TGI: Concentration for total inhibition of cell growth [7]	IC50 [7, 9]	inhibitory effect on galectin-induced hemagglutination [8]
N.N.[Cl][Pt][Cl] [Cisplatin, reference compound]	35.869 µM	<3.906 µM	< 3.91 µM	7.96 µM	64.977 µM	< 3.91 µM	15.550 µM	4.491 µM	< 3.91 µM	16.139 µM	4.77 µM	
OC[C@H]1O[C@@H](O[C@H]2[C@H](O)[C@@H](O)C(O)O[C@@H]2CO)[C@H](O)[C@@H](O)[C@H]1O (stereo partly drawn) [Lactose, reference compound]												inhibited hemagglutinating activity
